Measurements taken from paper PMC9655874, “Analysis of Volatile Secondary Metabolites in Ocimum basilicum Cell Suspensions: Inhibition, In Silico Molecular Docking, and an ADMET Analysis against Proteolytic Enzymes of Rhynchophorus ferrugineus” (Plants, 2022).
Converted amounts (≈) assume the structure as drawn.

Legend:
R. ferrugineus adults = assay: whole plant or invertebrate; assay type: in vivo; details: Rhynchophorus ferrugineus, read-out: LC50 (µg/mL) 95% CF
Method: (§1) Cells were suspended in the methanolic extract at serially increasing concentrations for 40 days. To dilute the compounds, TritonX-100 (0.1%) was added to acetone after the chemicals were dissolved. Adults or larvae of R. ferrugineus were purchased. They were then cultured using long lengths of sugar cane stem. The extracts’ anti-larvae action was assessed by applying topically to larvae and keeping them at 4–5 °C for 5 min. Utilizing a manually controlled micro-applicator, each larva had extract injected into its dorsum in three separate 10 µL doses using a 50-ll micro-syringe from Hertfordshire, UK’s Burkard Manufacturing Co., Ltd. (MS-N50; Shizuoka, Japan’s Ito Corp.). Five larvae in a box with three replications were fed on portions of long sugarcane stem measuring 10 cm. […] The sugarcane stem’s ten-centimeter-long portions cut into equal longitudinal halves were used to measure the antifeedant activity against adults. Long sections of sugarcane stem with a surface area of approximately 32.2 cm^2 were dried in air at room temperature, assuming a dipping time of 10 s and an initial serial concentration of (10 mL). Each treated object remained in a plastic container. Each box included an additional pair (male and female). Each therapy was administered ten times. In total, 24-, 48-, 72-, and 96-h feeding observations were assessed.
(§2) Statistics and probit analysis were performed using SPSS 25.0, as mentioned by Finney. To sum up, all numerical predictions of toxicity variables and findings were presented as the mean ± SE. We regressed mortality and translated the resulting dosage to an LC50 value (µg/mL). […] Enzyme activity data were analyzed using an ANOVA. Means were separated using the SNK (Student–Newman–Keuls) test, and deviations at the p ˂ 0.05 level were considered noteworthy.

[1] = target: cysteine protease of R. ferrugineus midgut; assay: Cysteine proteinase activity (in vitro); assay type: biochemical, Rhynchophorus ferrugineus; details: 4th instar midgut homogenate
Method: (§3) Utilizing the substrate N-benzoyl-Phe-Val-Arg-p-nitroanilide hydrochloride and certain modifications, the cysteine proteinases of R. ferrugineus homogenate from the fourth midgut instar was tested for activity. Ten larvae of the fourth midgut were carefully taken out, dissected, and periodically washed with 0.9% (w/v) NaCl solution, assay buffer containing 50 mM HEPS, 5 mM DTT, and 0.1% Triton X-100 (v/v) (pH 8.0, 500 µL) was used to homogenize the samples. The homogenates were spun using a cooling Sigma 3k30 centrifuge for 30 min at 5000 rpm. […] Before introducing 100 µL of the substrate, 10 µL of the supernatant was incubated in assay buffer (60 µL, pH = 8) at 37 °C for 30 min. Enzyme samples in 10 µL were incubated for 10 min with iodoacetic acid before the addition of the substrate. […] The absorbance at 520 nm was measured after spinning the reaction for 6 min at 5000 rpm. The activity in the midgut was assayed at OD520.60 min^−1 mg^−1 of protein with an ELISA rapid reader.

[2] = target: metalloprotease of R. ferrugineus midgut; assay: Metalloproteinase specific activity, CEGR substrate (in vitro); details: 4th instar midgut homogenate
Method: (§4) The ten midgut larvae from the fourth stage were neatly eliminated, dissected, and repeatedly washed with 0.9% NaCl solution. A 500 µL protease test solution, including 50 mM HEPS, 0.1% Triton X-100, and 5 mM DTT (pH 8.0), was utilized to homogenize the midgut instar. The homogenates were then centrifuged employing a Sigma 3k30 (cooling centrifuge) at 5000 rpm for 30 min to evaluate the supernatant’s enzyme activity and protein content. Before introducing CEGR (125 µL, 2% (w/v)), each experiment’s supernatant (10 µL) was incubated in an assay buffer (60 µL) at 37 °C for 20 min (pH 8). During a 10 min incubation period without a substrate, 10 µL enzyme samples were tested (20 min. for EDTA, EGTA, 1.10, Phenanthroline). After 180 min at 37 °C, 300 µL of cold TCA, 10% (v/v), was used to terminate the reaction. For the next 20 min, the mixture was spun (5000 rpm, Sigma 3K30). The absorbance was measured at 450 nm after mixing the supernatant with hydroxide solution (10 µL, 10 N) using an ELISA reader. An enzyme-free assay combination was utilized as a blank, and particular activity was evaluated utilizing the OD493 mg^−1 protein min^−1 and an enzyme-free blank specimen.
(§5) An experiment that was set up free of potential inhibitors served as a control. An ELISA plate fast reader measured the enzymes’ absorption at various wavelengths. For each inhibitor, the control enzyme’s percentage activity was assessed for each enzyme. Four instars midgut larvae were treated with previous concentrations of extracts or compounds, assessed as previously mentioned, to measure the protease activity in vivo. Larvae were subjected to extract- and compound-treated leaf discs for 24 h.

[3] = target: elastase of R. ferrugineus midgut; assay: Serine proteinase specific activity, elastase (in vitro); assay type: biochemical, Rhynchophorus ferrugineus; details: 4th instar midgut homogenate
[4] = target: trypsin proteinase of R. ferrugineus midgut; assay: Serine proteinase specific activity, trypsin (in vitro); details: 4th instar midgut homogenate
Method: (§6) We used a serine protease assay buffer and a modified version of the fast microplate method to analyze the serine proteinase’s specific activity in mixtures (150 µL) [26]. […] The sample (10 µL) was diluted using an assay buffer to 50 µL to determine the presence of trypsin proteinase, chymotrypsin proteinase, and elastase. Assay buffer was used to dilute stock substrates of BAρNA (100 mg/mL DMSO), both SAAPFρNA and SAAPLρNA (100 mg/mL DMF), to 1.0 mg/mL. To halt the reaction after 15 min of incubation at 37 °C, 50 µL of acetic acid (30%, v/v) was added. The intensity of the activity was measured using a 405 nm ELISA plate reader. A denaturation enzyme was used in place of an active enzyme in the experiment mixture. For three substrates (SAAPLρNA, BAρNA, and SAAPFρNA), activity levels of certain proteinases were assessed as OD mg^−1 protein min^−1.
as §5

[5] = system: R. ferrugineus 4th larvae; assay: Topical application (contact insecticide) to fourth instar larvae; assay type: in vivo, Rhynchophorus ferrugineus
Method: as §1, §2

[6] = system: elastase of R. ferrugineus midgut; assay: Elastase activity in midgut of treated larvae (in vivo); design: species or system Rhynchophorus ferrugineus; details: larvae treated 24 h, midgut preparation
[7] = system: total proteases of R. ferrugineus midgut; assay: Total protease activity in midgut of treated larvae (in vivo); details: larvae treated 24 h, midgut preparation
Method: (§7) The homogenate of R. ferrugineus 4th midgut instar larvae (lab strain) was assayed for total proteolytic enzyme activity using azocasein, as Darrag et al. [26], with modifications. Ten 4th midgut larval homogenates were carefully removed, incised, and then rinsed in a solution containing 0.9% NaCl before even being homogenized in a buffer (500 µL) containing 5 mM dithiothreitol (DTT), 0.1% (v/v) Triton X-100, and 50 mM N-2-hydroxyethyl piperazine-N′-2-ethane sulphonic acid (HEPS), and 8.0 pH. It was spun in a centrifuge (Sigma 3k30), and the remaining homogenates were from a preliminary phase for 30 min at 5000 rpm. Using the supernatants, the protein concentration and proteolytic enzyme activity were determined. […] Before each reaction experiment, 40-day-old methanolic extract of cell suspension, pure chemicals, and 10 μL of enzyme specimens were incubated for 10 min. The addition of the substrate initiated the reaction, which was allowed for 20 min in the case of leupeptin before being terminated 180 min later by adding 300 µL of cold tri-chloroacetic acid (TCA) (10%, v/v). Twenty minutes were spent centrifuging the mixture at 5000 rpm (Sigma 3k30). Overall, 10 µL of NaOH (10 N) was added to the supernatant, and the absorbance was measured using an ELISA plate reader at 450 nm to quantify the enzymes’ specific activity as OD450/mg protein/h.
as §5

[8] = system: trypsin proteinase of R. ferrugineus midgut; assay: Trypsin activity in midgut of treated larvae (in vivo); details: larvae treated 24 h, midgut preparation
Method: as §6, §5

[9] = system: metalloprotease of R. ferrugineus midgut; assay: Metalloprotease activity in midgut of treated larvae (in vivo); details: larvae treated 24 h, midgut preparation
Method: as §4, §5

[10] = system: cysteine protease of R. ferrugineus midgut; assay: Cysteine protease activity in midgut of treated larvae (in vivo); design: species or system Rhynchophorus ferrugineus; details: larvae treated 24 h, midgut preparation
Method: as §3

[11] = target: total proteases of R. ferrugineus midgut; assay: Total proteolytic enzyme activity of 4th instar midgut homogenate, azocasein (in vitro)
Method: as §7, §5

IC50 cysteine protease (in vitro) [1]: 287.3 µg/mL (≈ 1860 µM) | IC50 metalloprotease (in vitro) [2]: 543.5 µg/mL (≈ 3520 µM) | IC50 elastase (in vitro) [3]: 112.6 µg/mL (≈ 730 µM) | IC50 trypsin proteinase (in vitro) [4]: 168.4 µg/mL (≈ 1090 µM) | IC50 total proteases (in vitro) [11]: 281.7 µg/mL (≈ 1830 µM)
SMILES: C=C(C)C1CCC(C)(O)CC1 (stereo not drawn) [β-terpineol]
LC50 (R. ferrugineus adults): 3920 µg/mL (≈ 25400 µM) | LD50 (µg/Larvae) 95% CF ([5]; 4th larvae, topical, 95% confidence limits in brackets): 42.6 (39.7–44.3) µg/Larvae | LD50 ([5]; larvae, topical application): 42.6 µg/larva | IC50 elastase (in vivo) [6]: 239.4 µg/mL (≈ 1550 µM) | IC50 total proteases (in vivo) [7]: 379.5 µg/mL (≈ 2460 µM) | IC50 trypsin proteinase (in vivo) [8]: 237.1 µg/mL (≈ 1540 µM) | IC50 metalloprotease (in vivo) [9]: 1175.2 µg/mL (≈ 7620 µM) | IC50 cysteine protease (in vivo) [10]: 427.4 µg/mL (≈ 2770 µM)
